US12209085B2, “RET inhibitors, pharmaceutical compositions and uses thereof” (SUNSHINE LAKE PHARMA CO., LTD., priority 2018, dated 2025)

Assays:
Ret V804M = Ret V804M (Homo sapiens (Human), UniProt P07949, V804M); test: HTRF kinase inhibition assay, Ret V804M; format: biochemical; settings: HTRF method
From the text: (§1) • 1. […] 1) • 18) Echo (Labcyte, 550) • 3.
(§2) [formula] • Ratiopositive control: average of CEP-32496 readings in all positive control wells • Rationegative control: average of DMSO readings in all negative control wells • Wherein, the chemical name of CEP-32496 is: N-[3-[(6,7-dimethoxy-4-quinazolinyl)oxy]phenyl]-N′-[5-(2,2,2-trifluoro-1,1-dimethylethyl)-3-isoxazolyl]urea. • 4.3 Calculation of the IC50 and Drawing of the inhibition curve of the compound: • The IC50 (half inhibitory concentration) of the compound was obtained using the following non-linear fitting formula: Data analysis was performed using Graphpad 6.0 software. Y=Bottom+(Top−Bottom)/(1+10^((Log IC50−X)*Hill Slope)) • X: compound concentration log value Y: inhibition, % • 5.

Ret wt = Ret wt (Homo sapiens (Human), UniProt P07949); test: HTRF kinase inhibition assay, Ret wt; format: biochemical; settings: HTRF method
Ret wt, sequence (P07949 29-1114): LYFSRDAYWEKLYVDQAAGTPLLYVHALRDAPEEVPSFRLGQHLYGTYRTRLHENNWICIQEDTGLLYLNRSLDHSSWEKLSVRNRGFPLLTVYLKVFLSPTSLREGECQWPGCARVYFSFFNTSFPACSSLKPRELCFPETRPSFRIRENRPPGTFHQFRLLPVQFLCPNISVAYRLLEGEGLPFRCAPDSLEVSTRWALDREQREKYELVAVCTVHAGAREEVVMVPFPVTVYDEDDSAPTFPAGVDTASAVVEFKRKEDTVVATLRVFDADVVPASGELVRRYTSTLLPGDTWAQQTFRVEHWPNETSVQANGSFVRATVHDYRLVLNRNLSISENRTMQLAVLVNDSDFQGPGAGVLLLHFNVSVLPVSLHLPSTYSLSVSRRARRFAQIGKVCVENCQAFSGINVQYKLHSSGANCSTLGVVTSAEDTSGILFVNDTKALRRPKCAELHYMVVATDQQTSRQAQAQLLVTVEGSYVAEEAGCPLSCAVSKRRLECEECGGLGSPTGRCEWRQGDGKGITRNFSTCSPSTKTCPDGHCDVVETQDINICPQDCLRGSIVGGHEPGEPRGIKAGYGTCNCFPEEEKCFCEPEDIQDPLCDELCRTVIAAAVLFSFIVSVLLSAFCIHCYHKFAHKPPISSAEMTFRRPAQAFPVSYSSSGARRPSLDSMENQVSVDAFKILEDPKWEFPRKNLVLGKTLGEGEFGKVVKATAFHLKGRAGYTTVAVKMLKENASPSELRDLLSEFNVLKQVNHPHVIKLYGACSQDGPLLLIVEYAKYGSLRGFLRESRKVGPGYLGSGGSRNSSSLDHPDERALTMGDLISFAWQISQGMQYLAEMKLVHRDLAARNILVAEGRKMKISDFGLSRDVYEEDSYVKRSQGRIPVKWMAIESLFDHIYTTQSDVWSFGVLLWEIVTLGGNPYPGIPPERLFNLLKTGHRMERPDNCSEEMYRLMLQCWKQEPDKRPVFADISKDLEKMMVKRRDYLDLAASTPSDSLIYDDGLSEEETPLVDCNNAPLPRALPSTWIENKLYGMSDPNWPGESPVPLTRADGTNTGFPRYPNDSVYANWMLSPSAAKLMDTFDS
From the text: as §1, §2

Ret V804M, sequence (P07949 29-1114 V804M): as the sequence (P07949 29-1114) above, with V776M counted along it

SMILES | IC50 (Ret V804M) | IC50 (Ret wt)
C#Cc1cc(F)c(CN2C3CC2CN(c2ccc(-c4cc(-c5cnn(C)c5)cn5ncc(C#N)c45)cn2)C3)c(F)c1 [Example 222, 4-(6-(6-(4-ethynyl-2,6-difluorobenzyl)-3,6-diazabicyclo[3.1.1]heptan-3-yl)pyridin-3-yl)-6-(1-methyl-1H-pyrazol-4-yl)pyrazolo[1,5-a]pyridine-3-carbonitrile] | 4.35 nM | 0.43 nM
Cn1cc(-c2cc(-c3ccc(N4CC5CC(C4)N5CC#Cc4cccnc4)nc3)c3c(C#N)cnn3c2)cn1 [Example 249, 6-(1-methylpyrazol-4-yl)-4-[6-[6-[3-(3-pyridyl)prop-2-ynyl]-3,6-diazabicyclo[3.1.1]heptan-3-yl]-3-pyridyl]pyrazolo[1,5-a]pyridine-3-carbonitrile] | 1.77 nM | 0.39 nM
C#Cc1ccc(OC2CN(c3ccc(-c4cc(-c5cnn(C(F)F)c5)cn5ncc(C#N)c45)cn3)C2)cn1 [Example 283, 6-(1-(difluoromethyl)-1H-pyrazol-4-yl)-4-(6-(3-((6-ethynylpyridin-3-yl)oxy)azetidin-1-yl)pyridin-3-yl)pyrazolo[1,5-a]pyridine-3-carbonitrile] | 2.29 nM | 0.39 nM
Cn1cc(-c2cc(-c3ccc(N4CC5CC(C4)N5CC#Cc4ccccc4)nc3)c3c(C#N)cnn3c2)cn1 [Example 250, 6-(1-methyl-1H-pyrazol-4-yl)-4-(6-(6-(3-phenylprop-2-yn-1-yl)-3,6-diazabicyclo[3.1.1]heptanpyridin-3-yl)pyridin-3-yl)pyrazolo[1,5-a]pyridine-3-carbonitrile] | 0.88 nM | 0.14 nM
Cn1cc(-c2cc(-c3ccc(N4CC5CC(C4)N5C(=O)C#Cc4ccccc4)nc3)c3c(C#N)cnn3c2)cn1 [Example 271, 6-(1-methyl-1H-pyrazol-4-yl)-4-(6-(6-(3-phenylpropioloyl)-3,6-diazabicyclo[3.1.1]heptane-3-yl)pyridin-3-yl)pyrazolo[1,5-a]pyridine-3-carbonitrile] | 74.1 nM | 5.82 nM
C#Cc1cc(C(=O)N2CCN(c3ccc(-c4cc(-c5cnn(C)c5)cn5ncc(C#N)c45)cn3)CC2)ccc1F [Example 239, 4-(6-(4-(3-ethynyl-4-fluorobenzoyl)piperazin-1-yl)pyridin-3-yl)-6-(1-methyl-1H-pyrazol-4-yl)pyrazolo[1,5-a]pyridine-3-carbonitrile] | 12.3 nM | 0.62 nM
Cn1cc(-c2cc(-c3ccc(N4CC5CC(C4)N5C(=O)C#Cc4cccnc4)nc3)c3c(C#N)cnn3c2)cn1 [Example 273, 6-(1-methyl-1H-pyrazol-4-yl)-4-(6-(6-(3-(pyridin-3-yl)propioloyl]-3,6-diazabicyclo[3.1.1]heptan-3-yl]-3-pyridin]pyrazolo[1,5-a]pyridine-3-carbonitrile] | 82.6 nM | 4.28 nM
C#Cc1ccc(OC2CN(c3ccc(-c4cc(-c5cnn(C6CC6)c5)cn5ncc(C#N)c45)cn3)C2)cn1 [Example 280, 6-(1-cyclopropyl-1H-pyrazol-4-yl)-4-(6-(3-((6-ethynylpyridin-3-yl)oxy)azetidin-1-yl)pyridin-3-yl)pyrazolo[1,5-a]pyridine-3-carbonitrile] | 0.92 nM | 0.43 nM
C#Cc1ccc(C(=O)N2CCN(c3ccc(-c4cc(-c5cnn(C)c5)cn5ncc(C#N)c45)cn3)CC2)cc1F [Example 236, 4-(6-(4-(4-ethynyl-3-fluorobenzoyl)piperazin-1-yl)pyridin-3-yl)-6-(1-methyl-1H-pyrazol-4-yl)pyrazolo[1,5-a]pyridine-3-carbonitrile] | 19.7 nM | 1.57 nM
C#Cc1ccc(CN2CCN(c3ccc(-c4cc(-c5cnn(C)c5)cn5ncc(C#N)c45)cn3)CC2)nc1 [Example 225] | 2.22 nM | 0.39 nM
COc1cncc(C#CC(=O)N2CCN(c3ccc(-c4cc(-c5cnn(C)c5)cn5ncc(C#N)c45)cn3)CC2)c1 [Example 272, 4-(6-(4-(3-(5-methoxypyridin-3-yl)propioloyl)piperazin-1-yl)pyridin-3-yl)-6-(1-methyl-1H-pyrazol-4-yl)pyrazolo[1,5-a]pyridine-3-carbonitrile] | 5.26 nM | 0.72 nM
C#Cc1ccc(C(=O)N2CCN(c3ccc(-c4cc(-c5cnn(C)c5)cn5ncc(C#N)c45)cn3)CC2)nc1 [Example 237, 4-(6-(4-(5-ethynylpicolinoyl)piperazin-1-yl)pyridin-3-yl)-6-(1-methyl-1H-pyrazol-4-yl)pyrazolo[1,5-a]pyridine-3-carbonitrile] | 2.06 nM | 0.39 nM
C#Cc1cc(C(=O)N2C3CC2CN(c2ccc(-c4cc(-c5cnn(C)c5)cn5ncc(C#N)c45)cn2)C3)ccc1F [Example 233, 4-(6-(6-(3-ethynyl-4-fluorobenzoyl)-3,6-diazabicyclo[3.1.1]heptan-3-yl)pyridin-3-yl)-6-(1-methyl-1H-pyrazol-4-yl)pyrazolo[1,5-a]pyridine-3-carbonitrile] | 8.92 nM | 0.5 nM
Cn1cc(-c2cc(-c3ccc(N4CC5CC(C4)N5CC#Cc4cncc(F)c4)nc3)c3c(C#N)cnn3c2)cn1 [Example 259, 4-(6-(6-(3-(5-fluoropyridin-3-yl)prop-2-yn-1-yl)-3,6-diazabicyclo[3.1.1]heptane-3-yl)pyridin-3-yl)-6-(1-methyl-1H-pyrazol-4-yl)pyrazolo[1,5-a]pyridin-3-carbonitrile] | 0.91 nM | 0.16 nM
C#Cc1ccc(O[C@H]2CCN(c3ccc(-c4cc(-c5cnn(C(F)F)c5)cn5ncc(C#N)c45)cn3)C2)cn1 [Example 284, (S)-6-(1-(difluoromethyl)-1H-pyrazol-4-yl)-4-(6-(3-((6-ethynylpyridin-3-yl)oxy)pyrrolidin-1-yl)pyridin-3-yl) pyrazolo[1,5-a]pyridine-3-carbonitrile] | 23 nM | 1.63 nM
C#Cc1ccc(OC2CN(c3ccc(-c4cc(-c5cnn(C)c5)cn5ncc(C#N)c45)cn3)C2)cn1 [Example 287, 4-(6-(3-((6-ethynylpyridin-3-yl)oxy)azetidin-1-yl)pyridin-3-yl)-6-(1-methyl-1H-pyrazol-4-yl) pyrazolo[1,5-a]pyridine-3-carbonitrile] | 0.2 nM | 0.13 nM
Cn1cc(-c2cc(-c3ccc(N4CC5CC(C4)N5CC#Cc4cccnc4F)nc3)c3c(C#N)cnn3c2)cn1 [Example 256, 4-[6-[6-[3-(2-fluoro-3-pyridyl)prop-2-ynyl]-3,6-diazabicyclo[3.1.1]heptan-3-yl]3-pyridyl]-6-(1-methylpyrazol-4-yl)pyrazolo[1,5-a]pyridine-3-carbonitrile] | 0.44 nM | 0.14 nM
C#Cc1ccc(OC2CN(c3ccc(-c4cc(-c5cnn(C(F)F)c5)cn5ncc(C#N)c45)cn3)C2)cc1 [Example 285, 6-(1-(difluoromethyl)-1H-pyrazol-4-yl)-4-(6-(3-(4-ethynylphenoxy)azetidin-1-yl)pyridin-3-yl)pyrazolo[1,5-a]pyridine-3-carbonitrile] | 0.71 nM | 0.56 nM

Continued, values first:

IC50 (Ret V804M) | IC50 (Ret wt) | SMILES
1.94 nM | 0.15 nM | Cn1cc(-c2cc(-c3ccc(N4CCN(CC#Cc5ccccn5)CC4)nc3)c3c(C#N)cnn3c2)cn1 [Example 247, 6-(1-methylpyrazol-4-yl)-4-[6-[4-[3-(2-pyridyl)prop-2-ynyl]piperazin-1-yl]-3-pyridyl]pyrazolo[1,5-a]pyridine-3-carbonitrile]
31.4 nM | 2.5 nM | Cn1cc(-c2cc(-c3ccc(N4CCN(CC#Cc5ccncc5)CC4)nc3)c3c(C#N)cnn3c2)cn1 [Example 263, 6-(1-methyl-1H-pyrazol-4-yl)-4-(6-(4-(3-(pyridin-4-yl)prop-2-yn-1-yl)piperazin-1-yl)pyridine-3-yl)pyrazolo[1,5-a]pyridine-3-carbonitrile]
5.1 nM | 3.1 nM | Cn1cc(-c2cc(-c3ccc(N4CCN(CC#Cc5ccc(F)nc5)CC4)nc3)c3c(C#N)cnn3c2)cn1 [Example 261, 4-[6-[4-[3-(6-fluoro-3-pyridyl)prop-2-ynyl]piperazin-1-yl]-3-pyridyl]-6-(1-methylpyrazol-4-yl)pyrazolo[1,5-a]pyridine-3-carbonitrile]
69.6 nM | 3.65 nM | Cn1cc(-c2cc(-c3ccc(N4CCN(CC#Cc5cncc(C(F)(F)F)c5)CC4)nc3)c3c(C#N)cnn3c2)cn1 [Example 265]
5.47 nM | 0.91 nM | Cn1cc(-c2cc(-c3ccc(N4CCN(CC#Cc5ccccc5)CC4)nc3)c3c(C#N)cnn3c2)cn1 [Example 253, 6-(1-methyl-1H-pyrazol-4-yl)-4-(6-(4-(3-phenylprop-2-yn-1-yl)piperazin-1-yl)pyridine-3-yl)pyrazolo[1,5-a]pyridine-3-carbonitrile]
4.11 nM | 0.57 nM | Cn1cc(-c2cc(-c3ccc(N4CCN(CC#Cc5cccnc5F)CC4)nc3)c3c(C#N)cnn3c2)cn1 [Example 255, 4-[6-[4-[3-(2-fluoro-3-pyridyl)prop-2-ynyl]piperazin-1-yl]-3-pyridyl]-6-(1-methylpyrazol-4-yl)pyrazolo[1,5-a]pyridine-3-carbonitrile]
8.22 nM | 0.58 nM | C#CC#CCN1CCN(c2ccc(-c3cc(-c4cnn(C)c4)cn4ncc(C#N)c34)cn2)CC1 [Example 275, 6-(1-methyl-1H-pyrazol-4-yl)-4-(6-(4-(penta-2,4-diyn-1-yl)piperazin-1-yl)pyridine-3-yl)pyrazolo[1,5-a]pyridine-3-carbonitrile]
5.76 nM | 0.58 nM | Cn1cc(-c2cc(-c3ccc(N4CCN(CC#Cc5cccnc5)CC4)nc3)c3c(C#N)cnn3c2)cn1 [Example 248, 6-(1-methylpyrazol-4-yl)-4-[6-[4-[3-(3-pyridyl)prop-2-ynyl]piperazin-1-yl]-3-pyridyl]pyrazolo[1,5-a]pyridine-3-carbonitrile]
